Data as given in ChEMBL document CHEMBL4507291 (2021).

What was measured:
[1] = target: Mitogen-activated protein kinase 9 (Homo sapiens) (UniProt P45984)
[2] = target: Insulin receptor-related protein (Homo sapiens) (UniProt P14616)
[3] = target: T1, Ephrin type-B receptor 1 (Homo sapiens) (UniProt P54762)
T1 sequence (whole entry): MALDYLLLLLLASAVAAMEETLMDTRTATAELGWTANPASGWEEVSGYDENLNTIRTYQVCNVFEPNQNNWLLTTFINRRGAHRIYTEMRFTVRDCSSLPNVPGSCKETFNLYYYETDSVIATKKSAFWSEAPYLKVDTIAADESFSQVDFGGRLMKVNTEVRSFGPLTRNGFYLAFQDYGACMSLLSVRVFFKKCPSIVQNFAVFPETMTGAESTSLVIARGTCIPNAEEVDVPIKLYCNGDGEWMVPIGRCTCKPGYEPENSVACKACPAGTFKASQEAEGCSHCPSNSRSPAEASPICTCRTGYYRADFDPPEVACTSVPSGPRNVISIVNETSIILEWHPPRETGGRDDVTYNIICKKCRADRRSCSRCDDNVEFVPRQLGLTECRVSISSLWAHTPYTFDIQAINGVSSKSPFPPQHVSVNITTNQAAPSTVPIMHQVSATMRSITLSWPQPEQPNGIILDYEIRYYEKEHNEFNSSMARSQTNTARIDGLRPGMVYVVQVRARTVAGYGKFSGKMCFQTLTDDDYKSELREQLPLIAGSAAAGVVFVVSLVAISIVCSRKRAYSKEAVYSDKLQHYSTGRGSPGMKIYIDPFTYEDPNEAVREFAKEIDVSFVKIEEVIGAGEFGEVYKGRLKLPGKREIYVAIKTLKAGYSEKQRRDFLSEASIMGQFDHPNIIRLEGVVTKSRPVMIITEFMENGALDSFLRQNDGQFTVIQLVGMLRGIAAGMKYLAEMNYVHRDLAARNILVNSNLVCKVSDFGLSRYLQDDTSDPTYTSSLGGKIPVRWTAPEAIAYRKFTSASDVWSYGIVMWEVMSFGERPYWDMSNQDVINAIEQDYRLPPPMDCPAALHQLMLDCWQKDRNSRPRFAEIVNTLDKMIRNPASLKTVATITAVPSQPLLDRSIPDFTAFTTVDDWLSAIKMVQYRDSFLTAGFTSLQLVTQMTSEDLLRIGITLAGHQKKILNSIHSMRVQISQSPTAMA

[4] = target: Serine/threonine-protein kinase 32C (Homo sapiens) (UniProt Q86UX6)
[5] = target: Non-receptor tyrosine-protein kinase TYK2 (Homo sapiens) (UniProt P29597)
[6] = target: Death-associated protein kinase 2 (Homo sapiens) (UniProt Q9UIK4)
Sequence of Death-associated protein kinase 2 (Homo sapiens) (Q9UIK4 whole entry, looked up): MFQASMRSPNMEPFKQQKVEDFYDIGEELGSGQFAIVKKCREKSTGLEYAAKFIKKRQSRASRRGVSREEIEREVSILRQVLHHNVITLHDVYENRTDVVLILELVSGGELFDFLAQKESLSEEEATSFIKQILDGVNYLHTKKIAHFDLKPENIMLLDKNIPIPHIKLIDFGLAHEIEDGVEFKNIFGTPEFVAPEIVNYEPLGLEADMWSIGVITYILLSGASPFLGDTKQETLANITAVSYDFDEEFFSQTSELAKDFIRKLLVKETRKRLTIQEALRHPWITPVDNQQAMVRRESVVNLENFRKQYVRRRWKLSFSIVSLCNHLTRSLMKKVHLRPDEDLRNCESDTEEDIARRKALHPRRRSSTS

[7] = target: Eukaryotic translation initiation factor 2-alpha kinase 1 (Homo sapiens) (UniProt Q9BQI3)
[8] = system: Tyrosine-protein kinase ABL1 (Homo sapiens), P00519 [M351T]
[9] = target: T2, Ephrin type-B receptor 2 (Homo sapiens) (UniProt P29323)
T2 sequence (whole entry): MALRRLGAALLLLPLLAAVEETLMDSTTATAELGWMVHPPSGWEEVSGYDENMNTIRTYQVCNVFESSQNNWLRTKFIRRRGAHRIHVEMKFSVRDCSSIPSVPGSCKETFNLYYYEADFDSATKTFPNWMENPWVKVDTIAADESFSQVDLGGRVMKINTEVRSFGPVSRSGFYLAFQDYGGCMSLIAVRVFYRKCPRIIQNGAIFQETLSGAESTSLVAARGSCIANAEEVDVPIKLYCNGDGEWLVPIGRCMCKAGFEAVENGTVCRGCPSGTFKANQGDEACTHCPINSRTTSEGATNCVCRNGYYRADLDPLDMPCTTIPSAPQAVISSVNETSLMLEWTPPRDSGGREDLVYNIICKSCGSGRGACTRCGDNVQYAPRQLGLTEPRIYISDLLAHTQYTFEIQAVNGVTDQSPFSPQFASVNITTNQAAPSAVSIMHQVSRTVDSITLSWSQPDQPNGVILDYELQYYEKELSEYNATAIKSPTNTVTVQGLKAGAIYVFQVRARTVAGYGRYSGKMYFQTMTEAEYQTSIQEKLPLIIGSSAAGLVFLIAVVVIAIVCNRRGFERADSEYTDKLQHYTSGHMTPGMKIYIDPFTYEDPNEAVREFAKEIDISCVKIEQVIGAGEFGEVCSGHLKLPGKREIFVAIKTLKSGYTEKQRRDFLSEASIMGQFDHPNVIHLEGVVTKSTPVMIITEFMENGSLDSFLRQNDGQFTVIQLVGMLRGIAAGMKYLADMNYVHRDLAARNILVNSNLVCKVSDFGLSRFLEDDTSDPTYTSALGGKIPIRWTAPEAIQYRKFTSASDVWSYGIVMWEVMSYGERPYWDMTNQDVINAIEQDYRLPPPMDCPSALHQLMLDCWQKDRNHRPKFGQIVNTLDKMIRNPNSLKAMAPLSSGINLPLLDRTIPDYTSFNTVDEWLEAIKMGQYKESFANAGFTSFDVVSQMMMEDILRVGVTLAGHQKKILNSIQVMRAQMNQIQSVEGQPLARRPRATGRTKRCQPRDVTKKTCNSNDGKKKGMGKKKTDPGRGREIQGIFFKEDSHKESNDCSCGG

[10] = target: Serine/threonine-protein kinase MRCK gamma (Homo sapiens) (UniProt Q6DT37)
Sequence of Serine/threonine-protein kinase MRCK gamma (Homo sapiens) (Q6DT37 whole entry, canonical isoform): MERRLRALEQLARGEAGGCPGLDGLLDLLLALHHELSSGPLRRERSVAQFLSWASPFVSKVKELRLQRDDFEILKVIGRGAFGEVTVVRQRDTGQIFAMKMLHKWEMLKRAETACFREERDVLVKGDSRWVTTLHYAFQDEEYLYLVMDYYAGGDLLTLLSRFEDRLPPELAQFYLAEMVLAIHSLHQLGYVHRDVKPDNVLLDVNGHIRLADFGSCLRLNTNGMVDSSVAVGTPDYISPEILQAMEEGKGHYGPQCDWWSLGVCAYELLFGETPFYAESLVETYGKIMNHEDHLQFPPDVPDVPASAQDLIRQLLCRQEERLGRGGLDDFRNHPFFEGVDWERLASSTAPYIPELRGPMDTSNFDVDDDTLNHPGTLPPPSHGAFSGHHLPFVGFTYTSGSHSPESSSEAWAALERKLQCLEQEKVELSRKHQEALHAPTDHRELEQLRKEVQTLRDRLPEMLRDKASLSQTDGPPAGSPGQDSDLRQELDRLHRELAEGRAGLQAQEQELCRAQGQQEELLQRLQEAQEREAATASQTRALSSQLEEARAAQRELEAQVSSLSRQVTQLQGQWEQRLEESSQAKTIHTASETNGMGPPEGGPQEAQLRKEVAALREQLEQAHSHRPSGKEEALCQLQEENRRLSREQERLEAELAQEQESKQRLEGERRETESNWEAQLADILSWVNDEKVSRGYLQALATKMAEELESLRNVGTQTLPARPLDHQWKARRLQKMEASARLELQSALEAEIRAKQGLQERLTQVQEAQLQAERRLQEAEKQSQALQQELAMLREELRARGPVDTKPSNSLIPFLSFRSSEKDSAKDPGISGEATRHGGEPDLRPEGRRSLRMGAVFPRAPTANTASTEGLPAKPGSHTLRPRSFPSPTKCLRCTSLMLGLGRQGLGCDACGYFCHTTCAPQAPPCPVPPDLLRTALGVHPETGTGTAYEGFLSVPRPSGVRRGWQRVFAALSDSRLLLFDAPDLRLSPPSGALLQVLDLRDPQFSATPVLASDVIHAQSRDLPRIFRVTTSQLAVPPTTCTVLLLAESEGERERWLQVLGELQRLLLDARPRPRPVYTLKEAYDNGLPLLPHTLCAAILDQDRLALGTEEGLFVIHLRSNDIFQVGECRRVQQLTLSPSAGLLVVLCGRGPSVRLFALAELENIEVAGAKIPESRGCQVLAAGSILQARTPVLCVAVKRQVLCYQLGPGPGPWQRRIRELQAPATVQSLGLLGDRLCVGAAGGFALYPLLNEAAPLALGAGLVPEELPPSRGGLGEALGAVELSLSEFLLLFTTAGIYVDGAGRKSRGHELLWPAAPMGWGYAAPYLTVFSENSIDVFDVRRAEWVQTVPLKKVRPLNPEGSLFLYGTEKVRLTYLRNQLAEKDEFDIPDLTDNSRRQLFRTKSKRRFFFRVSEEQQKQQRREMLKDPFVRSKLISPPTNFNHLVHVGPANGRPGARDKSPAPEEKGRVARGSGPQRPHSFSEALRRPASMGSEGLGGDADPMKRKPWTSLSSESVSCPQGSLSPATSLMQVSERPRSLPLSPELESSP

[11] = system: Phosphatidylinositol 4,5-bisphosphate 3-kinase catalytic subunit alpha isoform (Homo sapiens), P42336 [E545K]
[12] = target: 5-hydroxytryptamine receptor 1E (Homo sapiens) (UniProt P28566); details: Compound concentration 10.0 uM
Sequence of 5-hydroxytryptamine receptor 1E (Homo sapiens) (P28566 whole entry): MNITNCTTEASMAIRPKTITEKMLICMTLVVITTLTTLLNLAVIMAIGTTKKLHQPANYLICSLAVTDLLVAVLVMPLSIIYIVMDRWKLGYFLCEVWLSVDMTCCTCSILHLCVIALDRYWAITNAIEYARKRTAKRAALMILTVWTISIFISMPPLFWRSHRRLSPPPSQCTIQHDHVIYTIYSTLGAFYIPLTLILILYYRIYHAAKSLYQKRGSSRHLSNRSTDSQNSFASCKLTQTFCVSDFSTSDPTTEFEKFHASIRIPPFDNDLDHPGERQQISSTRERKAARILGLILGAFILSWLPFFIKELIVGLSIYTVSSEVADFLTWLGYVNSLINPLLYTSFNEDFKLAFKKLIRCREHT

[13] = target: TGF-beta receptor type-2 (Homo sapiens) (UniProt P37173)
[14] = target: Ankyrin repeat and protein kinase domain-containing protein 1 (Homo sapiens) (UniProt Q8NFD2)
[15] = target: Mitogen-activated protein kinase 7 (Homo sapiens) (UniProt Q13164)
Sequence of Mitogen-activated protein kinase 7 (Homo sapiens) (Q13164 2-816 limits assumed): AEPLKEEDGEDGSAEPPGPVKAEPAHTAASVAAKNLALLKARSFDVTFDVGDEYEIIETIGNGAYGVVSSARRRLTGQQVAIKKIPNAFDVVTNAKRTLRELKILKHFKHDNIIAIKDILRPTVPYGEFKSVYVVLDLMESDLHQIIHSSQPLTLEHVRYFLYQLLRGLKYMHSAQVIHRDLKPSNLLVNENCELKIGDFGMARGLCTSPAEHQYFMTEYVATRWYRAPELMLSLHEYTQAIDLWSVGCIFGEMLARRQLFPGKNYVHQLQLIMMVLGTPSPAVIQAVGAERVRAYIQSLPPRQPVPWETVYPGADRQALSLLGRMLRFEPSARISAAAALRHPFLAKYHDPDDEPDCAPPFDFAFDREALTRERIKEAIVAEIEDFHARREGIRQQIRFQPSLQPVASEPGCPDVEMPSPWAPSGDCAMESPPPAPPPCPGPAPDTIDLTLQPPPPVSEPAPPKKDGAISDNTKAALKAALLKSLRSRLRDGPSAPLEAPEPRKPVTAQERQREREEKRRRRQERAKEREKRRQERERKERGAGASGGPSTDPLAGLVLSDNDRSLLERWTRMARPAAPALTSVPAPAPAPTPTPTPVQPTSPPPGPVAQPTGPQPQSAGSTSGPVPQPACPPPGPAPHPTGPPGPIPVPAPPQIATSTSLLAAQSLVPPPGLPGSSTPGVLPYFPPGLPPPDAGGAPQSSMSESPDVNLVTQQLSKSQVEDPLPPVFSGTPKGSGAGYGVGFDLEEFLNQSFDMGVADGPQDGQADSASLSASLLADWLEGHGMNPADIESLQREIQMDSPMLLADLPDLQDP

[16] = target: Tyrosine-protein kinase Lck (Homo sapiens) (UniProt P06239)
[17] = target: Proto-oncogene tyrosine-protein kinase Src (Homo sapiens) (UniProt P12931)
Sequence of Proto-oncogene tyrosine-protein kinase Src (Homo sapiens) (P12931 2-536 limits assumed): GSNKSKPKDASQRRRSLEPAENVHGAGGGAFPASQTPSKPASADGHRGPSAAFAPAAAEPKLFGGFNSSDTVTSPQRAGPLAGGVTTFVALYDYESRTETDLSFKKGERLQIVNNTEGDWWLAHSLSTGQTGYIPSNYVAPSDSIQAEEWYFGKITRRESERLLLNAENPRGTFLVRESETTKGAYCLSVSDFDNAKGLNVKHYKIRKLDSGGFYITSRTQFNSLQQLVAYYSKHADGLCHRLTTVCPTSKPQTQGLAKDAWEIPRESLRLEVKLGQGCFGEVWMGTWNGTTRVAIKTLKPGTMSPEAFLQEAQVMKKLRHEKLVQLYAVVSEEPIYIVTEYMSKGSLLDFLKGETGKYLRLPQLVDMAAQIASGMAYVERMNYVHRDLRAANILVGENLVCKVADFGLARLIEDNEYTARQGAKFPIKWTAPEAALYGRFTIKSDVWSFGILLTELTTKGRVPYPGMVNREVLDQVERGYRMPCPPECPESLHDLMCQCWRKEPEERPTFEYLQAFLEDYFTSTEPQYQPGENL

[18] = Compound concentration 1000.0 nM
[19] = Compound concentration 100.0 nM

Sequence of Insulin receptor-related protein (Homo sapiens) (P14616 27-742 limits assumed): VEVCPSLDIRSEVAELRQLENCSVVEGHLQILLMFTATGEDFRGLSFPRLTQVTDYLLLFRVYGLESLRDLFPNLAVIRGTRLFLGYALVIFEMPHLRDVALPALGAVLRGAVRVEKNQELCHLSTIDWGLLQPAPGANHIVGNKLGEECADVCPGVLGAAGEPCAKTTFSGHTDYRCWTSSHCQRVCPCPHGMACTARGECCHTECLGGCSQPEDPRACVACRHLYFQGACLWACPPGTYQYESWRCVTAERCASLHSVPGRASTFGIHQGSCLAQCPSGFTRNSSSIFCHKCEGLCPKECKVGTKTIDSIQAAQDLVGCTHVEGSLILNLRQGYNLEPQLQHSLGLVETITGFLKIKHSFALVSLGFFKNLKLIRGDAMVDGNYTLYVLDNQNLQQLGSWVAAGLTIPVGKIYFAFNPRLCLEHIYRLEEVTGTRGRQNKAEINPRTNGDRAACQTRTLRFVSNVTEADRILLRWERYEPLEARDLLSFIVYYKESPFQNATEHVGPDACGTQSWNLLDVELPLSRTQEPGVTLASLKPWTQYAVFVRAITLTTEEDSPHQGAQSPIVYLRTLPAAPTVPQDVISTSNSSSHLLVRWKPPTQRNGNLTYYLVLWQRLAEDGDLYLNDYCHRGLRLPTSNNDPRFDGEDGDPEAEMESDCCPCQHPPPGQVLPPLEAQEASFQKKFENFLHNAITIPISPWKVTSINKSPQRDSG
Sequence of Insulin receptor-related protein (Homo sapiens) (P14616 747-1297 limits assumed): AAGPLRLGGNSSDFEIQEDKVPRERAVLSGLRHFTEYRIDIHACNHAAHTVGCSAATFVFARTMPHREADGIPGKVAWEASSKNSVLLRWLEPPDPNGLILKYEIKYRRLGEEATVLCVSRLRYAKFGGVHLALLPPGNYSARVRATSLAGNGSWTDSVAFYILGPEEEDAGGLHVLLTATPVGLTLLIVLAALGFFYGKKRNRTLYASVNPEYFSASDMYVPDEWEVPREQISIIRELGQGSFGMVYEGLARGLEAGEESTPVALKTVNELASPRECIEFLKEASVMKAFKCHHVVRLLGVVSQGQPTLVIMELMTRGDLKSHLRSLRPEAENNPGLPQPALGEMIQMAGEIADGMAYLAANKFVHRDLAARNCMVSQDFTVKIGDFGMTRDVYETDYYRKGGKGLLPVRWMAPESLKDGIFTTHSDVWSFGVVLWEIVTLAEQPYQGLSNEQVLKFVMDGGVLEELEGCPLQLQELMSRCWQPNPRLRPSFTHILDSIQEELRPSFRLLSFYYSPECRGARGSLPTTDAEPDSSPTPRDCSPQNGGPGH

C[C@@H]1CN(c2cc(-c3nn(C)c4ccc(OC5(C)CC5)cc34)ncn2)C[C@H](C)O1 [MLi-2-NC]
inactive: residual activity [1, 18] 78% | residual activity [2, 18] 91% | residual activity [3, 18] 99% | residual activity [4, 18] 100% | residual activity [5, 18] 51% | residual activity [6, 18] 89% | residual activity [7, 18] 60% | residual activity [8, 18] 91% | residual activity [9, 18] 95% | residual activity [10, 18] 100% | residual activity [11, 18] 79% | inhibition [12] -0.18% | residual activity [13, 18] 73% | residual activity [14, 18] 67% | residual activity [15, 18] 76% | residual activity [16, 18] 94% | residual activity [17, 18] 100%

C[C@@H]1CN(c2cc(-c3n[nH]c4ccc(OC5(C)CC5)cc34)ncn2)C[C@H](C)O1 [MLi-2]
inactive: residual activity [1, 19] 72% | residual activity [2, 19] 57% | residual activity [3, 19] 83% | residual activity [4, 19] 89% | residual activity [5, 19] 81% | residual activity [6, 19] 85% | residual activity [7, 19] 100% | residual activity [8, 19] 95% | residual activity [9, 19] 90% | residual activity [10, 19] 89% | residual activity [11, 19] 65% | inhibition [12] -7.52% | residual activity [13, 19] 100% | residual activity [14, 19] 79% | residual activity [15, 19] 92% | residual activity [16, 19] 100% | residual activity [17, 19] 81%
